{"source": "patent US12023308B2", "about": "“Agents for reversing toxic proteinopathies” (THE BROAD INSTITUTE, INC., priority 2019, dated 2024)", "key": {"total MUC1 mRNA": {"test_system": "total MUC1 mRNA", "experiment": "MUC1 transcription assay (RT-PCR profiling screen) in P cells", "format": "cell-based, human", "conditions": "preliminary in vitro experiments in P cells", "procedure": "qPCR was performed using a previously described protocol (Bittker, 2012). P cells seeded at 2000 cells/well in 384-well, clear bottom, white wall plates were grown for 24 hr, then treated with profiling compounds transferred by pinning to duplicate plates. JQ1 (250 nM) and DMSO were used for controls as above. After 24 hr, cells were washed and cDNAs were made using ABI Cells-to-Ct kit (Thermo Fisher Scientific®, Waltham, Mass.). MUC1 and HMBS delta Cp values were determined using a Roche LightCycler 480 Instrument and TaqMan probes for MUC1 FAM (4351368 assay ID Hs00159357_m1) and HMBS VIC (4448486-assay ID Hs00609297_m1) (Thermo Fisher Scientific®, Waltham, Mass.), in 5 μL reactions. The fold change effect of the compounds on total MUC1 mRNA was normalized to JQ1 and DMSO controls, as described above."}, "P cells [1]": {"test_system": "P cells", "experiment": "P cell viability upon THP treatment (live imaging, rescue)", "format": "cell-based, human", "conditions": "Homo sapiens; DMSO pre-treatment, 5 days THP", "method": "To study apoptosis and cell death in N and P cells, 384 well Cell Carrier Ultra plates (6057308, Perkin Elmer), pre-coated with 0.25 mg/mL Synthemax II SC Substrate (3535, Corning) were used. […] CellEvent Caspase-3/7 Green Detection Reagent (C10423, Thermo Fisher Scientific®) and DRAQ7 (DR71000, Biostatus) were used at 1:5000 to monitor apoptosis and cell death respectively. Cells were imaged daily during 4 days to monitor viability and image analysis was performed as described below. For rescue experiments, P cells were plated on 96 well Cell Carrier Ultra microplates (6055302, Perkin Elmer) at 30,000 cells/well and cultured for 24 hr. BRD-4780 (5 μM) was applied as a pretreatment for 48 hr prior to thapsigargin exposure and throughout the experiment. Thapsigargin was applied at increasing doses and the plates were imaged daily thereafter.\nFor the measurement of P cell rescue from THP-induced cell death by BRD-4780 (FIGS. 3I and 3J), no dyes were added to avoid any influence on cell growth. Digital phase contrast images were used for cell identification and count, and autofluorescence in the far-red channel was used for detection of dead cells. Cells with no autofluorescence were identified and calculated as live cell.\nP cells were seeded 12 hr prior to profiling compound treatment at a density of 12,000 cells/well in 384 well Cell Carrier Ultra plates (6057308, Perkin Elmer), pre-coated with 0.25 mg/mL Synthemax II SC Substrate (3535, Corning). After 24 hr, CellEvent Caspase-3/7 Green Detection Reagent (C10423, Thermo Fisher Scientific®) and DRAQ7 (DR71000, Biostatus) were added at 1:5000 final dilution in the presence or absence of thapsigargin (100 nM). Cells were imaged daily during 7 days to monitor viability. Image acquisition and analysis was done as described above and viability was assessed as fraction of live cells at day 5 of thapsigargin treatment, and at the day 6 for DMSO."}, "P cells [2]": {"test_system": "P cells", "experiment": "THP-induced apoptosis (caspase 3/7) in N and P cells", "format": "cell-based, human", "conditions": "P cells compared to N cells, 72 hour", "method": "To study apoptosis and cell death in N and P cells, 384 well Cell Carrier Ultra plates (6057308, Perkin Elmer), pre-coated with 0.25 mg/mL Synthemax II SC Substrate (3535, Corning) were used. […] CellEvent Caspase-3/7 Green Detection Reagent (C10423, Thermo Fisher Scientific®) and DRAQ7 (DR71000, Biostatus) were used at 1:5000 to monitor apoptosis and cell death respectively. Cells were imaged daily during 4 days to monitor viability and image analysis was performed as described below. For rescue experiments, P cells were plated on 96 well Cell Carrier Ultra microplates (6055302, Perkin Elmer) at 30,000 cells/well and cultured for 24 hr. […]\nCaspase 3/7 activation and/or DRAQ7 staining were used to calculate the fraction of cells going through apoptosis and/or cell death, respectively. Single cells were first identified using the digital phase contrast channel and cell number was calculated. Fluorescence intensities were then measured and the threshold for Caspase 3/7 and DRAQ7 positive staining was determined. As an output, the fraction of live (neither caspase3/7 nor DRAQ7 signal detected), apoptotic (caspase3/7 positive) or dead cells (DRAQ7 positive) was calculated in each well at a particular time point.\nCell viability was determined using caspase activation as described above."}, "MUC1-fs [3]": {"test_system": "MUC1-fs", "experiment": "MUC1-fs immunofluorescence high-content imaging assay in P cells", "format": "cell-based, human", "method": "Cells grown on CellCarrier-96 or -384 well Ultra microplates (PerkinElmer) were fixed 10 min in PBS containing 4% PFA (Electron Microscopy Sciences), permeabilized 15 min in 0.5% Triton X100 (X100-100ML, Sigma-Aldrich), blocked for 1 hr in blocking reagent (100 mM Tris HCL pH8; 150 mM NaCL; 5 g/L Blocking Reagent [11096176001, Roche]) and treated for 1 hr with primary antibodies diluted in blocking reagent (1:500, monoclonal Fab-A-VSH anti-fsMUC1, AbD22655.2, Bio-Rad; 1:2000, monoclonal Mouse anti-MUC1 (CD227), 60137, Stemcell Technologies; 1:200, polyclonal, Mouse anti-GM130, ab169276, Abcam; 1:100, polyclonal, Rabbit anti-TMED9, 216201-AP, Proteintech; 1:800, polyclonal, Rabbit anti-SEC31A, 17913-1-AP, Proteintech; 1:400, monoclonal, Rabbit anti-EEA1 (C45B10), 3288S, Cell signaling technology; 1:100, polyclonal, Rabbit anti-ERGIC-53, E1031, Sigma-Aldrich; 1:400, monoclonal, Mouse anti-LAMP1 (D401S), 15665, Cell signaling technology; 1:1000, polyclonal, Rabbit anti-Calnexin, ab22595, Abcam; 1:2000, monoclonal, Rabbit anti-GM130 (D6B1) XP, 12480, Cell signaling technology; 1:200, monoclonal, Rabbit anti TNG46, ab50595, Abcam; 1:100, monoclonal, Rabbit anti-Rab7 (D95F2) XP, 9367, Cell signaling technology; 1:100, monoclonal, Rabbit anti-Rab11 (D4F5) XP, 5589, Cell signaling technology). Fixed, stained cells were washed three times in PBS and incubated for 1 hr with secondary antibodies in blocking solution (1:500, Alexa Fluor 488® Goat anti-Mouse IgG, A-11029, Thermo Fisher Scientific®; 1:500, Alexa Fluor 647® F(ab′)2-Goat anti-Rabbit IgG, A21246, Thermo Fisher Scientific®; 1:2000, Hoechst 33342, H3570, Thermo Fisher Scientific®), then washed three times in PBS and imaged.\nCell nuclei were first identified using Hoechst staining, and cell number was calculated. Cytoplasmic regions were then detected around each nucleus based on combined channels. The cells from the edge of the field were eliminated from the analysis. For the quantification of protein abundance, the total signal intensity value for each antibody was calculated separately in the cell cytoplasm and the average signal per cell was calculated for each well.\nP cells were seeded 24 hr prior to compound treatment at a density of 12,000 cells/well in 384 well Cell Carrier Ultra plates (6057308, Perkin Elmer), pre-coated with 0.25 mg/mL Synthemax II SC Substrate (3535, Corning). Compounds of the repurposing library set (Corsello et al., 2017) were used at 5 doses (35, 3.5, 0.35, 0.035 and 0.0035 μM) for the primary screen and 10 doses (16, 5.6, 1.8, 0.6, 0.21, 0.07, 0.02, 0.008, 0.002 and 0.0008 μM) for the following screens. The compounds, in two replicates, were transferred from compound source plates to the cell plates using the HighRes Pin Tool. […] After 48 hr incubation, cells were fixed for 20 min in 4% PFA (Electron Microscopy Sciences) in PBS, washed twice, then permeabilized (10 min) with 0.5% Triton-X100 (X100-100ML, Sigma-Aldrich) in PBS and washed once more. Cells were blocked for 10 min at RT with Blocking solution (100 mM Tris HCL pH8; 150 mM NaCL; 5 g/L Blocking Reagent [11096176001, Roche]), then incubated 90 min at RT with one of the following primary antibodies in Roche Blocking solution: 1:500, monoclonal Fab-A-VSH anti-MUC1-fs, AbD22655.2, Bio-Rad; 1:2000, monoclonal mouse anti-MUC1 (214D4), 05-652-KC, Millipore; 1:1000, monoclonal, Rabbit anti-GM130 (D6B1) XP, 12480, Cell signaling technology. […]"}, "[4]": {"experiment": "Dose response exposure PK study in male 129-ELITE mice", "format": "in vivo, mouse", "conditions": "single p.o. doses", "procedure": "4) A pharmacokinetic study was performed by Charles River Labs (CRL) (Worcester, Mass., USA) in fed male 129-ELITE mice (study EF-0024-DA-MI) to determine the dose response exposure of BRD-4780, BRD-1365 and BRD-7709 in plasma, kidney, liver and eye. Brain exposure to BRD-4780 at 30 mg/kg was also evaluated A single dose of BRD-4780 was administered at 30.0 mg/kg or 100 mg/kg orally (p.o) in a clear solution of 5% dextrose in water (D5W). For BRD-1365 and BRD-7709, a single dose of either compound was administered at 10.0 mg/kg, 30.0 mg/kg, 50.0 mg/kg or 100 mg/kg orally (p.o) in a clear solution of 5% dextrose in water (D5W). Blood, kidney, liver and eye tissue were collected from n=3 mice per dose group at six time points post p.o. dose administration (1, 2, 6, 10, 16 and 24 hours) with all three compounds. Brain tissue was collected from n=3 mice per dose group at six time points post p.o. dose administration (1, 2, 6, 10, 16 and 24 hours) with BRD-4780 at 30 mg/kg. Plasma obtained by centrifugation and tissue fragments were homogenized. Plasma and tissue drug concentration was determined by LC-MS/MS and reported as drug concentration in ng/mL for plasma and ng/mg for kidney, liver and eye tissue, plotted as the mean±standard deviation concentration for males for BRD-4780 ([…]), BRD-1365 (FIG. 11K) and BRD-7709 (FIG. 11M). Standard pharmacokinetic parameters were calculated for males for BRD-4780 ([…]), BRD-1365 (FIG. 11O) and BRD-7709 (FIG. 11P)."}, "MUC1-fs [5]": {"test_system": "MUC1-fs", "experiment": "Immunoblot analysis of MUC1-fs in P cells under pathway perturbations", "format": "cell-based, human", "conditions": "for effect on BRD-4780-mediated MUC1-fs clearance (immunoblot): with BRD-4780 (5 μM)"}, "ATF6": {"test_system": "ATF6", "experiment": "Immunoblot of BiP in THP-treated P cells", "format": "cell-based, human", "conditions": "P cells treated with THP (100 nM)", "procedure": "(§1) Cells were lysed in lysing buffer solution (9803, Cell Signaling Technology) containing protease inhibitors (05892791001, Roche) and phosphatase inhibitors (04906837001, Roche). Mouse kidney tissues were lysed by tissue homogenizer (Tissue-Tearo™, BioSpec Products) in lysing buffer solution containing inhibitors as above, followed by 20 min rocking at 4° C. and centrifugation at 16,000 g, 4° C. for 5 min. To normalize protein concentration, proteins in the supernatant of cells or of kidney lysates were quantified using the Pierce BCA Protein Assay Kit (23225, Thermo Fisher Scientific®). Normalized protein lysates were then mixed with NuPAGE LDS sample buffer (NP0008, Thermo Scientific) and NuPAGE reducing agent (NP0004, Thermo Scientific) and heated to 75° C. for 10 min prior to SDS-PAGE gel electrophoresis using NuPAGE Tris-Acetate SDS Running Buffer (LA0041, Thermo Scientific) or NuPAGE MES SDS running buffer (NP0002, Thermo Fisher Scientific®) depending on protein molecular weight of interest. Electrophoretically separated proteins were transferred to a nitrocellulose membrane (1704158, BioRad) using Trans-Blot® Turbo™ Blotting System (1704155, BioRad) following manufacturer's protocol. Membranes were blocked in 5% Nonfat Dry Milk (9999S, Cell Signaling Technology) in PBS with 0.1% Tween® 20 (PBS-T), and probed with primary antibody overnight at 4° C. […]"}, "MUC1-fs [6]": {"test_system": "MUC1-fs", "experiment": "MUC1-fs subcellular distribution (co-localization IF) in P cells", "format": "cell-based, human", "method": "Cell nuclei were first identified using Hoechst staining, and cell number was calculated. Cytoplasmic regions were then detected around each nucleus based on combined channels. The cells from the edge of the field were eliminated from the analysis. For the quantification of protein abundance, the total signal intensity value for each antibody was calculated separately in the cell cytoplasm and the average signal per cell was calculated for each well. For quantitation of MUC1-fs cellular distribution and trafficking, the analysis was performed as described in FIG. 13A using the “spot” identification feature for the detection of MUC1-fs and the different organelles.\nDetection of MUC1-fs in P cells at baseline and following secretory pathway perturbations was performed using immunoblot and IF analyses. […] For IF experiments (FIGS. 5B-5D and 13A-13C), P cells were plated in 384-well plates at 12,000 cells/well."}, "IRE": {"test_system": "IRE", "experiment": "RT-PCR analysis of XBP1 splicing in THP-treated P cells", "format": "cell-based, human", "conditions": "P cells treated with THP (100 nM)", "procedure": "XBP1 splicing was analyzed by standard RT-PCR. Briefly, RNA was isolated from patient cells using a RNeasy Mini Kit (74106, Qiagen). One μg of RNA was converted to cDNA using the SuperScript First-Strand Synthesis system for RT-PCR (11904-018, Invitrogen). The primer sequences used are as follows: Human XBP1 Forward Primer: 5′ TTACGAGAGAAAACTCATGGCC 3′ (SEQ ID NO: 12). Human XBP1 Reverse Primer: 5′ GGGTCCAAGTTGTCCAGAATGC 3′ (SEQ ID NO: 13). PCR was carried out on 3 μL of the resulting cDNA solution using the OneTaq Hot Start Master Mix (M0484S, NEB). Five μL of PCR product was run on a 2% agarose gel for 90 min at 150 V."}, "PERK": {"test_system": "PERK", "experiment": "Immunoblot of eIF2a phosphorylation in P cells", "format": "cell-based, human", "procedure": "as §1"}}, "note": "Where two headings read alike, the source gives them in different places."}
{"molecule": "Cc1sc2c(c1C)C(c1ccc(Cl)cc1)=N[C@@H](CC(=O)OC(C)(C)C)c1nnc(C)n1-2", "note": "[JQ1, reference compound]", "values": [{"measurement": "transcriptional suppression of both MUC1-fs and MUC1-wt", "setting": "total MUC1 mRNA", "value": 100, "unit": "%"}]}
{"molecule": "C/C=C(/C)C(=O)O[C@H]1C(C)=C2[C@H]([C@@H]1OC(=O)CCCCCCC)[C@@](C)(OC(C)=O)C[C@H](OC(=O)CCC)[C@@]1(O)[C@H]2OC(=O)[C@@]1(C)O", "note": "[THP, thapsigargin, reference compound]", "values": [{"measurement": "EC50", "setting": "P cells [1]", "value": 17, "unit": "nM"}, {"measurement": "susceptibility of P cells to THP-induced apoptosis", "setting": "P cells [2]", "value": "higher susceptibility to apoptosis compared to N cells"}]}
{"molecule": "CC(C)[C@@H]1[C@H]2CC[C@H](C2)[C@H]1N", "note": "(single isomer, unassigned) [BRD-7709]", "values": [{"measurement": "FS MUC1 cytoplasm EMax", "setting": "MUC1-fs [3]; high-content imaging assay", "value": "−39", "unit": "%"}, {"measurement": "IC50", "setting": "MUC1-fs [3]; high-content imaging assay; read-out: FS MUC1 cytoplasm IC50", "value": 660, "unit": "nM"}, {"measurement": "dose proportionality of AUC exposures", "setting": "[4]", "value": "nearly dose proportional"}]}
{"molecule": "CC(C)C[C@H](NC(=O)[C@H](Cc1ccccc1)NC(=O)c1cnccn1)B(O)O", "note": "[Bortezomib]", "values": [{"measurement": "effect on BRD-4780-mediated MUC1-fs clearance (immunoblot)", "setting": "MUC1-fs [5]", "value": "did not affect MUC1-fs removal by BRD-4780"}]}
{"molecule": "PF-429242", "values": [{"measurement": "ATF6 activation (BiP abundance)", "setting": "ATF6", "value": "dose-dependent reduction of BiP abundance"}, {"measurement": "MUC1-fs abundance (immunoblot)", "setting": "MUC1-fs [5]; 10 μM, 24 hours", "value": "MUC1-fs accumulation"}]}
{"molecule": "CO/C1=C\\C(C)=C\\[C@@H](C)[C@@H](O)[C@@H](C)C/C(C)=C/C=C/[C@H](OC)[C@@H]([C@@H](C)[C@@H](O)[C@H](C)[C@@]2(O)C[C@@H](O)[C@H](C)[C@@H](C(C)C)O2)OC1=O", "note": "[Bafilomycin A]", "values": [{"measurement": "effect on BRD-4780-mediated MUC1-fs clearance (immunoblot)", "setting": "MUC1-fs [5]", "value": "prevented BRD-4780 from clearing mutant MUC1-fs"}, {"measurement": "MUC1-fs subcellular distribution", "setting": "MUC1-fs [6]", "value": "accumulation of MUC1-fs in the late secretory pathway"}]}
{"molecule": "C[C@H]1CCC/C=C/[C@@H]2C[C@H](O)C[C@H]2[C@H](O)/C=C/C(=O)O1", "note": "[BFA, Brefeldin A]", "values": [{"measurement": "effect on BRD-4780-mediated MUC1-fs clearance (immunoblot)", "setting": "MUC1-fs [5]", "value": "abrogated the effect of BRD-4780 on MUC1-fs clearance"}, {"measurement": "MUC1-fs subcellular distribution", "setting": "MUC1-fs [6]", "value": "MUC1-fs accumulation in the ER"}]}
{"molecule": "CC(C)[C@H]1[C@@H]2CC[C@@H](C2)[C@@H]1N", "note": "(single isomer, unassigned) [BRD-1365]", "values": [{"measurement": "FS MUC1 cytoplasm EMax", "setting": "MUC1-fs [3]; high-content imaging assay", "value": "−39", "unit": "%"}, {"measurement": "IC50", "setting": "MUC1-fs [3]; read-out: FS MUC1 cytoplasm IC50; high-content imaging assay", "value": 730, "unit": "nM"}, {"measurement": "dose proportionality of AUC exposures", "setting": "[4]", "value": "not dose proportional"}]}
{"molecule": "Cc1cc(=O)oc2c(C=O)c(O)ccc12", "note": "[Compound 4μ8c]", "values": [{"measurement": "IRE activation (XBP1 splicing)", "setting": "IRE", "value": "dose-dependent inhibition of XBP1 splicing"}]}
{"molecule": "Cc1cccc(CC(=O)N2CCc3c2ccc(-c2cn(C)c4ncnc(N)c24)c3F)n1", "note": "[GSK2656157]", "values": [{"measurement": "PERK activation (eIF2a phosphorylation)", "setting": "PERK", "value": "dose-dependent reduction of eIF2a phosphorylation"}]}
